Data on 26 molecules can be found in patent US8975264B2, “Compound acting as a cannabinoid receptor-1 inhibitor” (Amorepacific Corporation, priority 2010, dated 2015).

Molecules are shown by their SMILES.

This assay concerns the target human CB1 (cannabinoid receptor 1) (Homo sapiens, UniProt P21554). The assay is described as follows: CB1 receptor inhibition effect: calcium ion influx assay (Fluo-4 NW) in Chem-1 cells after 1 μM R-(+)-WIN55212-2. Particulars: calcium ion influx in Chem-1 cells expressing human CB1, 1 μM R-(+)-WIN55212-2. The assay is classed as cell-based. As to the method:
When cells in which the cannabinoid receptor 1 (CB1) is stably expressed are treated with a CB1 receptor agonist, the CB1 receptor is activated and influx of calcium ions into the cells increases. CB1 receptor inhibition effect of a test compound can be evaluated by measuring the degree of calcium influx inhibition after treating with the test compound.
First, Chem-1 cells (Chemicon International, #HTS019C) in which human CB1 cDNA is expressed stably were seeded onto a 96-well cell culture plate at a density of ˜50,000 cells/well and incubated overnight in a 5% CO2 incubator at 37° C. The next day, the culture medium was discarded and the cells were cautiously washed once using an assay buffer (HBSS containing 20 mM HEPES and 2.5 mM probenecid) with 200 μL/well. Calcium ion influx was measured using an assay kit (Fluo-4 NW calcium assay kit: Molecular Probes™, #F36206) according to the manufacturer's instructions. The compounds of Examples of desired concentration to be measured were comprised to 0.5% DMSO. For control, only 0.5% DMSO was used without the compounds of Examples. Reaction time was 10 minutes. After treating the Chem-1 cells stably expressing the CB1 receptor with 1 μM R-(+)-WIN55212-2 (Sigma, #W102), a CB1 receptor agonist, calcium ion (Ca^2+) flux induced thereby was measured for 80 seconds using Flex Station 3 (Molecular Device, USA).
The difference in calcium ion concentration of the cells treated with the compounds of Examples or those treated with 1 μM R-(+)-WIN55212-2 was obtained from the difference of the maximum and minimum values during the 80 seconds. Then, % inhibition of the compounds for the CB1 receptor was calculated using the following equation. % inhibition={1−(ΔRFUcompound−ΔRFUBlank)/(ΔRFUControl−ΔRFUBlank)}×100 [Equation]
ΔRFU: maximum relative fluorescence units−minimum relative fluorescence units
ΔRFUCompound: difference in maximum and minimum RFUs in the well where the compounds of Examples dissolved in DMSO to a final concentration of 0.5% and 1 μM R-(+)-WIN55212-2 dissolved in DMSO to a final concentration of 0.5% were added
ΔRFUBlank: difference in maximum and minimum RFUs in the well to which only 1% DMSO was added
ΔRFUControl: difference in maximum and minimum RFUs in the well where 0.5% DMSO and 1 μM R-(+)-WIN55212-2 dissolved in DMSO to a final concentration of 0.5% were added

Sequence of human CB1 (cannabinoid receptor 1) (P21554 whole entry): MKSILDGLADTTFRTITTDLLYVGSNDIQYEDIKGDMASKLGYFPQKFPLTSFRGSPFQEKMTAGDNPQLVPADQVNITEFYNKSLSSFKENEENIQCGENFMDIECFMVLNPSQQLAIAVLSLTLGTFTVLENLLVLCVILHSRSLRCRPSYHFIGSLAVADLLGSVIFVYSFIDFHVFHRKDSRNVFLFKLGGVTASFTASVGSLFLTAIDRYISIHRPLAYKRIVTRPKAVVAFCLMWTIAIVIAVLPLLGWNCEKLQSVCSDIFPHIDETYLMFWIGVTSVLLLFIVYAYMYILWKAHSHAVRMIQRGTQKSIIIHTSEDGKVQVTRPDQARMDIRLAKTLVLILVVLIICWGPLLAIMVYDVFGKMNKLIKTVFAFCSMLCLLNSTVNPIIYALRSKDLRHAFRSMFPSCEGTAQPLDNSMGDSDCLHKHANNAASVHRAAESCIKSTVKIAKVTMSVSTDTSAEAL

A word on the IC50: it is the concentration that inhibits the measured activity by half. Turning to `Cc1nn2c(-c3cccc(C(F)(F)F)c3)cc(N3CCC[C@H]3CO)nc2c1-c1ccc(F)cc1` [Example 139], the half-maximal inhibitory concentration (IC50) was 140 nM. Still for that read-out and setting: next, `Cc1nn2c(-c3cccc(Cl)c3)cc(N3CCC[C@H]3CO)nc2c1-c1ccc2c(c1)OCO2` [Example 172]: 190 nM. Usually inhibition stands for how much of the control response was suppressed. Take `Cc1nn2c(-c3ccccc3)cc(N3CCC[C@@H]3CO)nc2c1-c1ccc(Cl)cc1` [Example 305]: the inhibition at 3 µM (compound at 3 μM) is approximately 5%.

Turning to `CCOCc1nn2c(-c3cccc(F)c3)cc(N(C)CCO)nc2c1-c1ccc(C)cc1` [Example 240], the IC50 came to 10 nM. Same read-out and setting: next, `Cc1ccc(-c2c(C)nn3c(-c4ccc(F)cc4)cc(N4CCC[C@H]4CO)nc23)cc1F` [Example 79]: 100 nM.

For the molecule `Cc1ccc(-c2c(C)nn3c(-c4cccc(F)c4)cc(N4CCC[C@H]4CO)nc23)cc1` [Example 110, (S)-(1-(3-(4-methylphenyl)-7-(3-fluorophenyl)-2-methylpyrazolo[1,5-a]pyrimidin-5-yl)pyrrolidin-2-yl)methanol], the IC50 worked out at 80 nM. On the same count and under the same terms, the result for `COc1cccc(-c2cc(N3CCC[C@H]3CO)nc3c(-c4ccc(C)c(F)c4)c(C)nn23)c1` [Example 183] reads 130 nM. Still for that read-out and setting: next, `CCc1ccc(-c2c(C)nn3c(-c4cccc(C(F)(F)F)c4)cc(N4CCC[C@H]4CO)nc23)cc1` [Example 129]: 73 nM. The same measure, in the same setting: next, `Cc1ccc(-c2c(C)nn3c(-c4ccc(F)cc4)cc(N4CCC[C@H]4CO)nc23)cc1` [Example 63, (S)-(1-(3-(4-methylphenyl)-7-(4-fluorophenyl)-2-methylpyrazolo[1,5-a]pyrimidin-5-yl)pyrrolidin-2-yl)methanol]: 41 nM; `Cc1nn2c(-c3cccc(F)c3)cc(N3CCC[C@H]3CO)nc2c1-c1ccc(Cl)cc1` [Example 3]: 93 nM; `Cc1nn2c(-c3ccc(F)c(Cl)c3)cc(N3CCC[C@H]3CO)nc2c1-c1ccc(F)cc1` [Example 192]: 150 nM. For the molecule `CCCCc1nn2c(-c3cccc(C)c3)cc(N3CCC[C@H]3CO)nc2c1-c1ccc(C)cc1` [Example 289], the IC50 came to 30 nM. For `COc1ccc(-c2c(C)nn3c(-c4cccc(C(F)(F)F)c4)cc(N4CCC[C@H]4CO)nc23)cc1F` [Example 138], the IC50 came out at 210 nM. The same measure, in the same setting: next, `Cc1nn2c(-c3ccc(F)cc3)cc(N3CCC[C@H]3CO)nc2c1-c1ccccc1` [Example 83]: 220 nM. The same measure, in the same setting: next, `CCOCc1nn2c(-c3cccc(Cl)c3)cc(N(C)CCO)nc2c1-c1ccc(OC)cc1` [Example 248]: 600 nM. In the case of `Cc1ccc(-c2c(C)nn3c(-c4ccc(F)c(Cl)c4)cc(N4CCC[C@H]4CO)nc23)cc1F` [Example 185], the half-inhibitory concentration (IC50) came to 210 nM. As to `CCOCc1nn2c(-c3cccc(Cl)c3)cc(N(C)CCO)nc2c1-c1ccc2c(c1)OCO2` [Example 254], the IC50 turned out to be 130 nM. `COCc1nn2c(-c3cccc(C)c3)cc(N(C)CCO)nc2c1-c1ccc(Cl)cc1` [Example 262]: the 50% inhibitory concentration (IC50) was found to be 18 nM.

As to `Cc1nn2c(-c3ccc(F)cc3)cc(N3CCC[C@H]3CO)nc2c1-c1ccc2c(c1)OCO2` [Example 66], the concentration for half-maximal inhibition (IC50) amounted to 140 nM. In the case of `COc1ccc(-c2c(C)nn3c(-c4ccc(C)cc4)cc(N4CCC[C@H]4CO)nc23)cc1` [Example 42], the IC50 is 350 nM. The same measure, in the same setting: the result for `CCc1cccc(-c2cc(N3CCC[C@H]3CO)nc3c(-c4ccc(Cl)cc4)c(C)nn23)c1` [Example 14] reads 90 nM. As to `Cc1nn2c(-c3ccc(Cl)cc3)cc(N3CCC[C@H]3CO)nc2c1-c1ccc(Cl)cc1` [Example 15], the concentration for half-maximal inhibition (IC50) is 350 nM.

Regarding `CCc1cccc(-c2cc(N3CCC[C@H]3CO)nc3c(-c4ccc(OC)cc4)c(C)nn23)c1` [Example 43], the half-maximal inhibitory concentration (IC50) was determined as 210 nM. Take `Cc1nn2c(-c3ccc(F)c(F)c3)cc(N3CCC[C@H]3CO)nc2c1-c1ccc(Cl)cc1` [Example 21]: the IC50 was found to be 51 nM. Still for that read-out and setting: next, `CCOCc1nn2c(-c3cccc(C(F)(F)F)c3)cc(N(C)CCO)nc2c1-c1ccc(Cl)cc1` [Example 244]: 7 nM; `Cc1cccc(-c2cc(N3CCC[C@H]3CO)nc3c(-c4ccc5c(c4)OCO5)c(C)nn23)c1` [Example 159]: 200 nM.
